The text below walks through data of patent US10653695B2, “Pharmaceutical formulations of neflamapimod” (EIP Pharma, LLC, priority 2018, dated 2020).

The nature of data set [1]: Dissolution testing (USP <711>, Apparatus 2) of neflamapimod capsules and blends, including on stability. Particulars: powder-in-capsule vs capsules stored at 40° C./75% RH; FIG. 1. The format is physicochemical. From the text: USP Dissolution Acceptance Criteria. Dissolution testing of a drug product is a method for evaluating physiological availability that depends upon having the drug in a dissolved state. The United States Pharmacopoeia (“USP”) dissolution testing <USP 711> involves three stages with the acceptance criteria defined for each stage as a function of a quantity Q, a percentage of the label value that is established for each drug product.
Dissolution testing data described herein are generated according to the specifications shown below in Table 3 and using the procedure set forth by the United States Pharmacopeial Convention in USP <711>.
Determined by the procedure set forth in Example 1.1.

The conditions of data set [2]: cited from earlier work.

On to `O=c1ncn2nc(Sc3ccc(F)cc3F)ccc2c1-c1c(Cl)cccc1Cl` [Neflamapimod], for which, in data set [1], the “Dissolution compared to the aged capsules” value is on record as “better dissolution”. Further, in data set [2], the Solubility in water result is “very low”.
